Experimental data from paper PMC5944028, “Nonclinical and clinical pharmacological characterization of the potent and selective cathepsin K inhibitor MIV-711” (Journal of Translational Medicine, 2018).

Columns and labels:
[1] = system: differentiated human osteoclasts; test: Osteoclast-mediated bone resorption, human bone fragments (CTX-I release); format: cell-based
Experimental: The effect of MIV-711 on osteoclast-mediated bone resorption was evaluated using a complete kit from Cambrex Bio Science (Walkersville, MD, USA). Briefly, primary osteoclasts were generated from osteoclast precursors by incubation with RANK ligand and M-CSF in 96-well plates coated with human bone fragments, according to the instructions from the provider. After differentiation (minimum of 5 days), osteoclasts were exposed to different fixed concentrations of MIV-711 for 24 h. The resorption activity of the cultures was determined by quantifying CTX-I in the culture supernatants using a commercially available enzyme-linked immunosorbent assay (CrossLaps®, Nordic Bioscience Diagnostics A/S, Herlev, Denmark). Controls exposed to medium without inhibitor were set to 100%. CTX-I levels from MIV-711-treated cells were normalized and expressed as % of control. Curves were generated plotting the concentration of MIV-711 versus % of control. The curves were fitted to the Hill (four parameter) equation to generate an IC50 value using GraphPad Prism software. The IC50 value was defined as the concentration of MIV-711 that reduced CTX-I levels to 50% of control.

[2] = biological target: T1, human cathepsin H (Homo sapiens, UniProt P09668); test: Enzyme assay, human cathepsin H; format: biochemical
T1 construct: purchased Athens Research Technology
T1 sequence (P09668 98-335): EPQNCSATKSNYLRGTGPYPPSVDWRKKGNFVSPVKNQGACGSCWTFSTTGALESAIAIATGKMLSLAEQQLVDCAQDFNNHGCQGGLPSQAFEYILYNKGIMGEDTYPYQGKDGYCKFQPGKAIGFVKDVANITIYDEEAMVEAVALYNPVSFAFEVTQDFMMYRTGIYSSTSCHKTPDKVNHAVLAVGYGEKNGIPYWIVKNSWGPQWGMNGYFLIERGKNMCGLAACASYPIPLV
Text: (§1) Recombinant cathepsin K enzymes from all species were expressed in E. coli, purified and activated. Human cathepsin F and cathepsin S were expressed in Baculovirus, purified and activated. Purified human cathepsins B and H (Athens Research Technology), cathepsin L (Calbiochem), and cathepsin V (R & D Systems) were purchased.
(§2) H-D-Ala_Leu-Lys-AMC was used as the substrate in assays of cathepsin K from non-rodent species (human, dog, rabbit and guinea pig), and Z-Leu-Arg-AMC was used as the substrate in assays of cathepsin K from rodent species (mouse and rat). […]
(§3) Assays were carried out in white polystyrene 96-well plates in a final volume of 100 µL. […] Plates were read in a Fluoroskan Ascent (Thermo Labsystems, Helsinki, Finland) in kinetic mode, with excitation and emission filters of 390 and 460 nm, respectively. Rates were determined by linear regression of the fluorescence/time data in Excel. Rates were fitted by non-linear regression to either the competitive inhibition equation, with the substrate concentration fixed at the value in the assay and the KM fixed to the value previously determined, or the IC50 equation using GraphPad Prism (GraphPad, version 6, San Diego, USA) to obtain Ki or IC50 values, respectively.

[3] = biological target: T2, human cathepsin F (Homo sapiens, UniProt Q9UBX1); test: Enzyme assay, human cathepsin F; format: biochemical
T2 construct: made in house
T2 sequence (Q9UBX1 271-484): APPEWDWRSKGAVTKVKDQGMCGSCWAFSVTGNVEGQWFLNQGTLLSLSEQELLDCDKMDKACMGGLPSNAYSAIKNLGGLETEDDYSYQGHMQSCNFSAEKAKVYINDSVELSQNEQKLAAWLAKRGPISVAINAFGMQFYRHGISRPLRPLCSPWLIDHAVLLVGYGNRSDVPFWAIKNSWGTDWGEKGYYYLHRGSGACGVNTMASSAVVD
Text: as §1, §2, §3

[4] = Monkey plasma pharmacokinetics, single oral dose; format: in vivo, cynomolgus monkeys (Macaca fascicularis); settings: for AUC0–t / AUCinf / Cmax / Cmax/dose / t½: geometric mean (CV%); for tmax: median (min–max)
Experimental: Eight cynomolgus monkeys (Macaca fascicularis) were used for measuring plasma levels of MIV-711 and CTX-I after a single dose. The animals were healthy young males, approximately 2–4 years old and weighing 3–4 kg. Experiments were performed at Covance Ltd (Harrogate, UK). The monkeys were used over an extended period of time (up to a year) and several cathepsin K inhibitors were evaluated during this time. At least 1 week was allowed for washout in between experiments. This was not believed to affect the results with MIV-711, and vehicle controls were run on a regular basis when appropriate. Each animal received at least one dose of MIV-711 and one dose of vehicle with at least 1 week of washout in between treatments.
In single dose experiments, animals were dosed with vehicle or MIV-711 (3–30 µmol/kg) via oral gavage at a dose volume of 4 mL/kg between 7:30 and 9:00 a.m. Blood samples were collected at baseline, 30 min, 1, 2, 4, 8, 12, 24 and 48 h after dose from the femoral vein and transferred into lithium heparin anticoagulant tubes. The samples were centrifuged and the two aliquots of the resultant plasma were frozen at − 70 °C. All samples were processed and stored within 30 min of collection. The aliquots were used to determine the MIV-711 concentration and CTX-I levels, respectively. [drawing 1]
The quantification of MIV-711 in monkey plasma was performed by taking 10–50 µL of plasma and mixing with 3 volumes of acetonitrile (10 s, Vibrofix). The sample was centrifuged (10 min, 20,000×g, 7 °C) and 5 µL of the supernatant was injected onto the liquid chromatography with tandem mass spectrometric detection (LC–MS/MS) system. The lowest concentration of the standard curves and the lower limit of quantification (LLOQ) was 1 nmol/L of MIV-711. The human plasma samples were prepared by protein precipitation for sample extraction followed by LC–MS/MS. The lowest concentration of the standard curves and the LLOQ was 4 nmol/L of MIV-711 using 25 µL of plasma.

[5] = biological target: T3, human cathepsin S (Homo sapiens, UniProt P25774); test: Enzyme assay, human cathepsin S; format: biochemical; settings: geometric mean
T3 construct: made in house
T3 sequence (P25774 115-331): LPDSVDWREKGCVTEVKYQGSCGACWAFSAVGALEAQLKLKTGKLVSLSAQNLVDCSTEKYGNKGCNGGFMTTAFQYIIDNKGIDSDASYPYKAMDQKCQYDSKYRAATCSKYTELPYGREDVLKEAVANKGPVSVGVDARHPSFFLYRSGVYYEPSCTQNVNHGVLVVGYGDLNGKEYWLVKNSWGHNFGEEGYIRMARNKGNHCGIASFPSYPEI
Text: as §1, §2, §3

With `C#C[C@@H]1CN(C(=O)[C@H](CC(C)C)NC(=O)c2ccc(-c3nc(N4CCN(C)CC4)sc3F)cc2)[C@@H]2C(=O)CO[C@H]12` [MIV-711] the “Concentration needed for effect on bone resorption in vitro relative to Ki” value [1] was “around 50 fold”, the IC50 ([1]; human bone fragments, 24 h, CTX-I, geometric mean) was 0.043 µM and the Ki [2] was > 10 µM. The Ki [3] was 2.8 µM, the “AUC0–t” value ([4]; 3 µmol/kg p.o. single dose) was 0.400 (60) µmol/L × h and the AUCinf ([4]; 3 µmol/kg p.o. single dose) was 0.409 (62) µmol/L × h. For the same compound, the Cmax ([4]; 3 µmol/kg p.o. single dose) was 102 nM, the Cmax/dose ([4]; 3 µmol/kg p.o. single dose) was 0.034 (65) and the t½ ([4]; 3 µmol/kg p.o. single dose) was 2.1 (16) h. For the same compound, the tmax ([4]; 3 µmol/kg p.o. single dose) was 2.0 (2.0–2.0) h, the “AUC0–t” value ([4]; 10 µmol/kg p.o. single dose) was 0.881 (52) µmol/L × h and the AUCinf ([4]; 10 µmol/kg p.o. single dose) was 0.932 (46) µmol/L × h. The Cmax ([4]; 10 µmol/kg p.o. single dose) was 164 nM, the Cmax/dose ([4]; 10 µmol/kg p.o. single dose) was 0.016 (41) and the t½ ([4]; 10 µmol/kg p.o. single dose) was 3.1 (52) h. The tmax ([4]; 10 µmol/kg p.o. single dose) was 2.0 (0.50–4.0) h, the “AUC0–t” value ([4]; 30 µmol/kg p.o. single dose) was 6.21 (62) µmol/L × h and the AUCinf ([4]; 30 µmol/kg p.o. single dose) was 6.28 (62) µmol/L × h. The Cmax ([4]; 30 µmol/kg p.o. single dose) was 923 nM, the Cmax/dose ([4]; 30 µmol/kg p.o. single dose) was 0.031 (56) and the t½ ([4]; 30 µmol/kg p.o. single dose) was 3.4 (30) h. For the same compound, the tmax ([4]; 30 µmol/kg p.o. single dose) was 2.0 (1.0–4.0) h, the “Plasma concentration at 24 h post-dose” value ([4]; highest dose group (30 µmol/kg p.o.)) was “approximately 10 nmol/L” and the “Plasma concentration at 24 h post-dose” value ([4]; lowest dose group (3 µmol/kg p.o.), below LLOQ) was < 1 nM. For the same compound, the Ki [5] was 15.7 µM.
